According to US7071168B2, “Anti-cancer compounds and methods related thereto” (The Regents of the University of Colorado, priority 1998, dated 2006):

Tests used:
[1] = test system: bradykinin response of isolated guinea pig ileum; assay: Anti-bradykinin activity on isolated guinea pig ileum
Outline: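 Terminal ileum segments (25 mm) from overnight-fasted male Hartley guinea pigs, in Krebs' solution gassed with 95% O2/5% CO2 under 1 g tension, equilibrated 1 h. Bradykinin concentration-effect curves constructed without and with test compounds.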

SCLC strain SHP-77 = assay: Colorimetric tetrazolium (MTT) assay for cell survival, SCLC strain SHP-77; format: cell-based, human
Experimental: In general, Anti-bradykinin activity was determined by the classical guinea pig ileum assay and on Chinese hamster ovary (CHO) cells expressing cloned human bradykinin B2 receptors. Anti-tumor activity was determined on cultured human cancer cell lines using the standard tetrazolium (MTT) assay.
Cell growth and survival were measured by a rapid colorimetric assay based on the tetrazolium salt MTT (3-(4,5-dimethylthiazol-2-yl)-2,5-diphenyl tetrazolium bromide) (Mosmann, J Immunol. Methods 65: 55–63, 1983, with minor modifications). Briefly, 1,000 normal lung fibroblasts or normal epithelial BEAS-2B cells, 1,000 or 5,000 viable non-SCLC cells or 10,000 viable SCLC cells were plated in 100 μL of growth medium in 96-well flat-bottomed microtiter plates. Cells were incubated overnight to allow recovery. Compounds to be tested were added to the cells in triplicate in a range of concentrations and the cells were incubated at 37° C., 5% CO2, with 100% humidity. Control cells were treated in the same way without antagonists. […] Plates were incubated for 4 days, allowing sufficient time for cell replication and compound-induced cell death to occur. On day 5, 25 μL of a 2 mg/mL solution of MTT (Sigma) dissolved in RMPI-1640was added to each well. The plate was incubated for 4 h at 37° C. The supernate was removed and the blue formazan complex was dissolved by adding 100 μL of 0.02 N HCl in 75% isopropanol to all wells. Absorbance was immediately determined using a scanning multiwell plate reader. B9870 caused 50% cell death at a concentration of 0.15 μM under these conditions.

[2] = isolated guinea pig ileum, pD2 of bradykinin is 7.4, higher numbers indicate higher potency
[3] = Table 1, higher numbers indicate higher potency

| Molecule | GPI: pA2 for bradykinin antagonist activity on isolated guinea pig ileum [1, 2] | MTT: ED50 for killing of SCLC strain SHP-77 in vitro (SCLC strain SHP-77; SCLC strain SHP-77 in vitro) | also measured |
| --- | --- | --- | --- |
| CC1(C)CC(NC(=O)C(Cc2ccc3ccccc3c2)NC(=O)OC(C)(C)C)CC(C)(C)N1 (centres unmarked) [M288A] | 5.2 | >85 µM |  |
| CC1(C)CC(NC(=O)C(Cc2ccc3ccccc3c2)NC(=O)OC(C)(C)C)CC(C)(C)N1 (centres unmarked) [M288] | 5.2 | Inact |  |
| CC1(C)CC(NC(=O)C(Cc2ccc3ccccc3c2)NC(=O)c2nc(Cl)c(Cl)c(N)c2Cl)CC(C)(C)N1 (centres unmarked) [M302] | 5.2 | 3.5 µM |  |
| CC1CN(C(=O)[C@H](Cc2ccc3ccccc3c2)NC(=N)CCCCCCCCCCCCC(=N)N[C@@H](Cc2ccc3ccccc3c2)C(=O)N2CC(C)OC(C)C2)CC(C)O1 (some centres unmarked) [M304] | 5.9 | 4.2 µM |  |
| CC1(C)CC(NC(=O)C(Cc2ccc3ccccc3c2)NC(=O)C=Cc2ccc(N)cc2)CC(C)(C)N1 (centres unmarked) [M308] | 5.0 | >75 µM |  |
| CC1(C)CC(NC(=O)C(Cc2ccc3ccccc3c2)NC(=O)C=Cc2ccc(C(F)(F)F)cc2)CC(C)(C)N1 (centres unmarked) [M312] | 5.5 | 3.2 µM |  |
| Cc1cc(NC(=O)C(Cc2ccc3ccccc3c2)NC(=O)C=Cc2c(F)c(F)c(F)c(F)c2F)c2ccccc2n1 (centres unmarked) [M314] | 4.6 | 25 µM |  |
| CC1(C)CC(NC(=O)C(Cc2ccc(OCc3ccccc3)cc2)NC(=O)C=Cc2c(F)c(F)c(F)c(F)c2F)CC(C)(C)N1 (centres unmarked) [M318] | 5.1 | 3.6 µM |  |
| CN(C)c1ccc(C=CC(=O)NC(Cc2ccc3ccccc3c2)C(=O)NC2CC(C)(C)NC(C)(C)C2)cc1 (centres unmarked) [M324] | 5.2 | 3 µM |  |
| CC1(C)CC(NC(=O)[C@H](Cc2csc3ccccc23)NC(=N)CCCCCCCCCCCCC(=N)N[C@@H](Cc2csc3ccccc23)C(=O)NC2CC(C)(C)NC(C)(C)C2)CC(C)(C)N1 [M436-2] | 5.8 | 4.5 µM |  |
| CN(C)c1ccc(C=CC(=O)NC(Cc2csc3ccccc23)C(=O)NC2CC(C)(C)NC(C)(C)C2)cc1 (centres unmarked) [M448] | 5.7 | 2.7 µM |  |
| CN1CCN(NC(=O)[C@H](Cc2ccc3ccccc3c2)NC(=O)C=Cc2ccc(NC(=O)CCCCCCCCCCC(=O)O)cc2)CC1 [M480-1] | 5.1 | 45 µM |  |
| COC(=O)CCCCCCCCC(=O)Nc1ccc(C=CC(=O)NC(Cc2csc3ccccc23)C(=O)NC2CC(C)(C)NC(C)(C)C2)cc1 (centres unmarked) [M506] | 4.9 | 11 µM |  |
| CC1(C)CC(NC(=O)C(Cc2ccc3ccccc3c2)NC(=O)COc2c(F)c(F)c(F)c(F)c2F)CC(C)(C)N1 (centres unmarked) [M568] | 5.8 | 10 µM |  |
| CN(C(=O)C(Cc1ccc(OCc2c(Cl)cccc2Cl)cc1)NC(=O)C=Cc1c(F)c(F)c(F)c(F)c1F)C1CC(C)(C)NC(C)(C)C1 (centres unmarked) [M592] | 4.9 | 1.5 µM |  |
| CCOC(=O)N1CCC(NC(=O)C(Cc2ccc3ccccc3c2)NC(=O)C=Cc2ccc(N)cc2)CC1 (centres unmarked) [M604] | 4.5 | 43 µM |  |
| CC1(C)CC(NC(=O)C(Cc2cccc3ccccc23)NC(=O)C=Cc2ccc(NC(=O)CCCCCCCCCCC(=O)Nc3ccc(C=CC(=O)NC(Cc4cccc5ccccc45)C(=O)NC4CC(C)(C)NC(C)(C)C4)cc3)cc2)CC(C)(C)N1 (centres unmarked) [M616] | 5.4 | 1.4 µM |  |
| CN(C(=O)C(Cc1ccc(OCc2c(Cl)cccc2Cl)cc1)NC(=O)C=Cc1c(F)c(F)c(F)c(F)c1F)C1CC(C)(C)N(C)C(C)(C)C1 (centres unmarked) [M622] | 5.7 | 1.2 µM |  |
| CN(C)c1cccc2c(S(=O)(=O)NC(Cc3ccc(OCc4c(Cl)cccc4Cl)cc3)C(=O)N(C)C3CC(C)(C)NC(C)(C)C3)cccc12 (centres unmarked) [M624] | 5.1 | 1.4 µM |  |
| CN(C(=O)C(Cc1ccc(OCc2c(Cl)cccc2Cl)cc1)NC(=O)C=Cc1cccnc1)C1CC(C)(C)NC(C)(C)C1 (centres unmarked) [M626] | 4.8 | 3.7 µM |  |

| Molecule | GPI: pA2 for bradykinin antagonist activity on isolated guinea pig ileum [1, 2] | MTT: ED50 for killing of SCLC strain SHP-77 in vitro (SCLC strain SHP-77; SCLC strain SHP-77 in vitro) | also measured |
| --- | --- | --- | --- |
| CN(C(=O)C(Cc1ccc(OCc2c(Cl)cccc2Cl)cc1)NC(=O)C=Cc1ccccc1)C1CC(C)(C)NC(C)(C)C1 (centres unmarked) [M628] | 5.2 | 1.6 µM |  |
| CN(C)c1ccc(C=CC(=O)NC(Cc2ccc(OCc3c(Cl)cccc3Cl)cc2)C(=O)N(C)C2CC(C)(C)NC(C)(C)C2)cc1.O=C(O)C(F)(F)F (centres unmarked) [M630, Dmac-OC2Y-Matp.TFA] | 5.0 | 1.6 µM |  |
| CN(C(=O)[C@H](Cc1ccc(OCc2c(Cl)cccc2Cl)cc1)NC(=O)c1nc(Cl)c(Cl)c(N)c1Cl)C1CC(C)(C)NC(C)(C)C1 [M632] | 5.4 | 1.4 µM |  |
| CC1(C)CC(NC(=O)C(Cc2ccc(NS(C)(=O)=O)cc2)NC(=O)C=Cc2c(F)c(F)c(F)c(F)c2F)CC(C)(C)N1 (centres unmarked) [M648] | 5.0 | Inact |  |
| CN(C(=O)C(Cc1ccc(OCc2c(Cl)cccc2Cl)cc1)NC(=O)CCc1ccccc1)C1CC(C)(C)N(C)C(C)(C)C1 (centres unmarked) [M652] | 5.7 | 7.5 µM |  |
| CC1=C(CC(=O)NC2CC(C)(C)NC(C)(C)C2)c2cc(F)ccc2C1=Cc1ccc([S+](C)[O-])cc1 (centres unmarked) [M654] | 4.5 | Inact |  |
| CC1=C(CC(=O)NC(Cc2ccc3ccccc3c2)C(=O)NC2CC(C)(C)NC(C)(C)C2)c2cc(F)ccc2C1=Cc1ccc([S+](C)[O-])cc1 (centres unmarked) [M656] | 5.4 | 13 µM |  |
| CC1(C)CC(NC(=O)C(NC(=O)C=Cc2c(F)c(F)c(F)c(F)c2F)C(C)(C)C)CC(C)(C)N1 (centres unmarked) [M662] | 5.2 | Inact |  |
| CN(C(=O)C(Cc1cc(I)c(OCc2c(Cl)cccc2Cl)c(I)c1)NC(=O)C=Cc1c(F)c(F)c(F)c(F)c1F)C1CC(C)(C)NC(C)(C)C1 (centres unmarked) [M664] | 5.0 | 1.2 µM |  |
| CN(C)c1cccc2c(S(=O)(=O)NC(Cc3cc(I)c(OCc4c(Cl)cccc4Cl)c(I)c3)C(=O)N(C)C3CC(C)(C)NC(C)(C)C3)cccc12 (centres unmarked) [M666] | 5.0 | 1.3 µM |  |
| CN(C)c1ccc(CNC(=O)C(Cc2ccc(F)cc2)NC(=O)C=Cc2c(F)c(F)c(F)c(F)c2F)cc1 (centres unmarked) [M832] | 4.6 | 47 µM |  |
| (DArg-Arg-Pro-Hyp)2Dpr-Igl-Ser-DIgl-Oic-Arg [B10098] |  |  | GPI: pA2 for bradykinin antagonist activity on isolated guinea pig ileum [1, 3]: 5.3; MTT: ED50 for killing of SCLC strain SHP-77 in vitro (SCLC strain SHP-77; Table 1, SHP-77, MTT, 4 days): 20 µM |
| (Dns-DArg-Igl-Arg)2-DDA [M678] | 5.3 | 1.1 µM |  |
| (Gun)2-BApG-DArg-Arg-Pro-Hyp-Gly-Igl-Ser-DIgl-Oic-Arg [B10092] |  |  | GPI: pA2 for bradykinin antagonist activity on isolated guinea pig ileum [1, 3]: 8.7; MTT: ED50 for killing of SCLC strain SHP-77 in vitro (SCLC strain SHP-77; Table 1, SHP-77, MTT, 4 days): >20 µM |
| Aaa-DPhe-hPhe-Arg [M754] |  |  | GPI: pA2 for bradykinin antagonist activity on isolated guinea pig ileum [1, 3]: 4.6; MTT: ED50 for killing of SCLC strain SHP-77 in vitro (SCLC strain SHP-77; Table 1, SHP-77, MTT, 4 days): Inact |
| Ac-Darg-Arg-Aud-DF5F-Oic-Arg [M868] |  |  | GPI: pA2 for bradykinin antagonist activity on isolated guinea pig ileum [1, 3]: 6.5; MTT: ED50 for killing of SCLC strain SHP-77 in vitro (SCLC strain SHP-77; Table 1, SHP-77, MTT, 4 days): 55 µM |
| Aca-c[DArg-Arg-Pro-Hyp-Gly-Thi-Ser-Nig-Oic-Arg] [B10304] |  |  | GPI: pA2 for bradykinin antagonist activity on isolated guinea pig ileum ([1]; Table 3, cyclic peptides): 6.4; MTT: ED50 for killing of SCLC strain SHP-77 in vitro (SCLC strain SHP-77; Table 3, cyclic peptides): Inact |
| Ava-Igl-Ser-DF5F-Oic-Arg [M806] |  |  | GPI: pA2 for bradykinin antagonist activity on isolated guinea pig ileum [1, 3]: 5.6; MTT: ED50 for killing of SCLC strain SHP-77 in vitro (SCLC strain SHP-77; Table 1, SHP-77, MTT, 4 days): Inact |
| BApG-DArg-Arg-Pro-Hyp-Gly-Igl-Ser-DIgl-Oic-Arg [B10084] |  |  | GPI: pA2 for bradykinin antagonist activity on isolated guinea pig ileum [1, 3]: 8.1; MTT: ED50 for killing of SCLC strain SHP-77 in vitro (SCLC strain SHP-77; Table 1, SHP-77, MTT, 4 days): >20 µM |
| D-Arg-Arg-Aud-PaF(F5c)-Arg [M726] |  |  | GPI: pA2 for bradykinin antagonist activity on isolated guinea pig ileum [1, 3]: 5.6; MTT: ED50 for killing of SCLC strain SHP-77 in vitro (SCLC strain SHP-77; Table 1, SHP-77, MTT, 4 days): Inact |
